From patent US8614236B2 (University of Washington, priority 2006, dated 2013)
Values joined by “and” are separate entries in the source; they are usually repeats but may differ in a detail not shown here. Equal values may be shown once. “Also recorded” adds a separate entry of the source.

Experiments:
[1] = tested on: PASMCs; assay: Basal intracellular Ca2+ concentration in PASMCs (Fura-2); assay type: cell-based, rat; details: for basal [Ca^2+]i, Treatment: 100 μM, after 10 min of perfusion; for effect on resting [Ca^2+]i: 10-100 μM; for basal [Ca^2+]i, Baseline: before perfusion with the compound
Description: (§1) Intrapulmonary arteries (200-600 μm o.d.) were isolated from male Wistar rats (250-350 g) and cleaned of connective tissue. After the lumen was gently rubbed with a cotton swab to remove the endothelial cells, the arteries were allowed to recover for 30 minutes in cold (4° C.) HBSS containing (in mM): 130 NaCl, 5 KCl, 1.2 MgCl2, 1.5 CaCl2, 10 N-[2-hydroxyethyl]piperazine-N′-[2-ethanesulfonic acid] (HEPES) and 10 glucose, with pH adjusted to 7.2 with 5 M NaOH, followed by 20 minutes in reduced-Ca^2+ (20 μM CaCl2) HBSS at room temperature. […] Following digestion, single smooth muscle cells were dispersed by gentle trituration with a wide-bore transfer pipette in Ca^2+-free HBSS and the cell suspension was placed on 25 mm glass cover slips. PASMCs were transiently cultured in Ham's-F-12 media supplemented with 0.5% fetal bovine serum and 1% penicillin/streptomycin for 24-48 hrs. before study.
(§2) Acute hypoxia increases intracellular [Ca^2+] in pulmonary arterial smooth muscle by enhancing capacitative Ca^2+ entry. […] Ratiometric measurement of fluorescence from the dye was performed on a workstation (Intracellular Imaging Inc, Cincinnati, Ohio) consisting of a Nikon TSE 100 Ellipse inverted microscope with epi-fluorescence attachments. The light beam from a xenon arc lamp was filtered at 340 and 380 nm, and focused onto the PASMCS under examination via a 20× fluorescence objective (Super Fluor 20, Nikon). Light emitted from the cell at 510 nm was returned through the objective and detected by a cooled CCD imaging camera. An electronic shutter (Sutter Instruments) was used to minimize photobleaching of dye. Protocols were executed and data collected on-line with InCyte software (Intracellular Imaging Inc). [Ca^2+]i was estimated from in vitro calibration solutions.

[2] = tested on: PASMCs; assay: Hypoxia-induced increase in [Ca2+]i in PASMCs (4% O2); assay type: cell-based, rat; details: 10-100 μM
Description: as §1, §2

[3] = tested on: PASMCs; assay: KCl-induced Ca2+ responses in PASMCs; assay type: cell-based, rat
Description: as §1, §2

[4] = tested on: PASMCs; assay: Changes in membrane potential (Em) in PASMCs, DiBAC4(3) fluorescence; assay type: cell-based, rat; details: 100 μM
Description: The method for obtaining single PASMCs has been described previously in Shimoda L. A., et al., Am J Physiol 274: 842-853 (1998), which is hereby incorporated by reference in its entirety. Intrapulmonary arteries (200-600 μm o.d.) were isolated from male Wistar rats (250-350 g) and cleaned of connective tissue. After the lumen was gently rubbed with a cotton swab to remove the endothelial cells, the arteries were allowed to recover for 30 minutes in cold (4° C.) HBSS containing (in mM): 130 NaCl, 5 KCl, 1.2 MgCl2, 1.5 CaCl2, 10 N-[2-hydroxyethyl]piperazine-N′-[2-ethanesulfonic acid] (HEPES) and 10 glucose, with pH adjusted to 7.2 with 5 M NaOH, followed by 20 minutes in reduced-Ca^2+ (20 μM CaCl2) HBSS at room temperature. The tissue was enzymatically digested in reduced-Ca^2+ HBSS containing collagenase (type I; 1750 U/ml), papain (9.5 U/ml), bovine serum albumin (2 mg/ml) and dithiothreitol (1 mM) at 37° C. for 20 minutes. Following digestion, single smooth muscle cells were dispersed by gentle trituration with a wide-bore transfer pipette in Ca^2+-free HBSS and the cell suspension was placed on 25 mm glass cover slips. PASMCs were transiently cultured in Ham's-F-12 media supplemented with 0.5% fetal bovine serum and 1% penicillin/streptomycin for 24-48 hrs. before study.
Changes in membrane potential were measured using the fluorescence dye, DiBAC4(3), which was excited at 490 nm and detected at 510 nm. Cells were loaded by continuous perfusion with Kreb's solution containing 500 nM DiBAC4(3) and were perfused for at least 15 minutes before beginning measurements to insure stable uptake of dye. Baseline DiBAC4(3) fluorescence was monitored for 5 minutes with control Kreb's, followed by 10 minutes with Kreb's in the presence or absence of AZ (100 μM). At the end of this period, cells were challenged with KCl (60 mM) or endothelin-1 (ET-1) (10^−8 M). Since DiBAC4(3) is a single wavelength dye, any change in the concentration of the dye in the perfusion medium (i.e., differing concentrations between perfusion reservoirs) could result in a change in fluorescence that is not due to a change in membrane potential. To minimize the possibility of this type of error, all experiments were performed using inflow from a single reservoir into which AZ, KCl or ET-1 were dissolved directly.
AZ has recently been proposed to alter the activation of Ca^2+-activated K^+ channels, causing hyperpolarization. See Pickkers P., et al., Br J Pharmacol 132: 443-450 (2001); Tricarico D., et al., Ann Neurol 48: 304-312 (2000); and Tricarico D., et al., Faseb J 18: 760-761 (2004), which are hereby incorporated by reference in their entirety. Since depolarization is believed to contribute to the hypoxia-induced increase in [Ca^2+]i, AZ-induced hyperpolarization could prevent activation of voltage-gated Ca^2+ channels and an increase in [Ca^2+]i in response to hypoxia. In order to test this possibility, the Em-sensitive fluorescent dye, DiBAC4(3) was used. […] Baseline fluorescence was relatively stable over time, decreasing by 4.11±0.4% over 10 minutes (n=90 cells).

[5] = tested on: Beagle dogs; assay: Dog study: arterial blood gases, ventilation and acid-base status in normoxia and hypoxia; assay type: in vivo; details: po 5 mg/kg 12 and 1 hr before; hypoxia 3rd h
[6] = tested on: humans; details: 250 mg tid; Balanos et al. abstract 2006; cited from earlier work

Row | SMILES | basal [Ca^2+]i, Treatment [1] | effect on resting [Ca^2+]i [1] | basal [Ca^2+]i, Baseline [1] | effect on hypoxia-induced increase in [Ca^2+]i [2] | effect on KCl-induced increase in [Ca^2+]i ([3]; 100 μM) | [Ca^2+]i after KCl ([3]; KCl 60 mM, pretreatment 100 μM) | mean change in [Ca^2+]i in response to KCl ([3]; KCl 60 mM, pretreatment 100 μM, control 123.4±20.6 nM) | [Ca^2+]i before KCl ([3]; pretreatment 100 μM) | change in basal DiBAC4(3) fluorescence (basal Em) [4] | effect on basal Em [4] | increase in DiBAC4(3) fluorescence induced by ET-1 in presence of compound ([4]; ET-1) | increase in DiBAC4(3) fluorescence induced by KCl in presence of compound ([4]; KCl) | HCO3a, arterial actual bicarbonate concentration [5] | reduction of HPV in humans [6] | effect on hypoxia-induced increase in [Ca^2+]i ([2]; listed as EF)
1 | CC(=O)Nc1nnc(S(N)(=O)=O)s1 [AZ, acetazolamide] | 150.0 ± 9.6 nM and 155.0 ± 9.6 nM | no effect | 159.6 ± 10.8 nM | almost complete blockade; also recorded: significant reduction | no effect; also recorded: not altered | 292.6 ± 21.2 nM | 134.7 ± 18.2 nM | 157.8 ± 11.9 nM | −2.86±4.5% | no significant effect | 66.0±10.4% | 53.13±14.8% | 16.9 ± 0.5 mM | 50% | 
2 | NS(=O)(=O)c1nnc(NS(=O)(=O)c2ccccc2)s1 [BZ, benzolamide] | 120.7 ± 7.7 nM | neither EZ nor BZ altered | 113.4 ± 7.4 nM | no effect; also recorded: neither EF (FIG. 5) nor BZ (FIG. 6) had a significant effect |  |  |  |  |  |  |  |  |  |  | 
3 | CCOc1ccc2nc(S(N)(=O)=O)sc2c1 [EZ, ethoxzolamide] | 122.5 ± 6.3 nM | neither EZ nor BZ altered | 125.5 ± 7.1 nM | no effect |  |  |  |  |  |  |  |  |  |  | neither EF (FIG. 5) nor BZ (FIG. 6) had a significant effect
